Reference: the supplement of paper PMC11061612

How the values were obtained:
[1] = tested on: ZR-75-30 (Breast Carcinoma); assay: combination Emax (second highest fraction inhibited in the dose matrix, 72 h); higher = more inhibition; extreme values may be limits of the assay
Outline: (§1)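 Cell lines grown in DMEM/F12 or RPMI with 10% FBS were plated in 1536-well plates and held 24 hours at 37°C, 5% CO2 before 72 hours of exposure to two-drug dose matrices, with DMSO typically at 0.2%. CellTiter-Glo 2.0 luminescence gave viability, which was converted to inhibition. Vehicle wells were set to 0 and blank wells to 1. Combination Emax is the second-highest inhibition in the matrix, and Bliss excess is the observed combination effect minus the expected EA + EB − EA·EB, where EA and EB are the single-agent effects.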

KALS-1 (Glioblastoma) = assay: as above
Outline: as §1

[2] = tested on: BHT-101 (Thyroid Gland Carcinoma); assay: as above
Outline: as §1

[3] = tested on: BxPC-3 (Pancreatic Carcinoma); assay: as above
Outline: as §1

[4] = tested on: LS-1034 (Colorectal Carcinoma); assay: as above
Outline: as §1

IST-MEL1 (Melanoma) = assay: as above
Outline: as §1

[5] = tested on: SKG-IIIa (Cervical Carcinoma); assay: as above
Outline: as §1

SK-N-SH (Neuroblastoma) = assay: as above
Outline: as §1

[6] = tested on: MONO-MAC-6 (Acute Myeloid Leukemia); assay: as above
Outline: as §1

[7] = tested on: HT-1080 (Other Solid Carcinomas); assay: as above
Outline: as §1

[8] = tested on: HPAF-II (Pancreatic Carcinoma); assay: as above
Outline: as §1

WM35 (Melanoma) = assay: as above
Outline: as §1

[9] = tested on: MOLP-8 (Plasma Cell Myeloma); assay: as above
Outline: as §1

[10] = tested on: C-33-A (Cervical Carcinoma); assay: as above
Outline: as §1

[11] = tested on: OVCAR-3 (Ovarian Carcinoma); assay: as above
Outline: as §1

[12] = tested on: HPAF-II (Pancreatic Carcinoma); assay: Bliss excess, mean over the matrix (fraction); higher = more synergy
Outline: as §1
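Wherever Bliss excess, mean over the matrix is given: after 72 h of two-drug dosing.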

| SMILES | combination Emax [1] | combination Emax (KALS-1 (Glioblastoma)) | combination Emax [2] | combination Emax [3] | combination Emax [4] | combination Emax (IST-MEL1 (Melanoma)) | combination Emax [5] | combination Emax (SK-N-SH (Neuroblastoma)) | combination Emax [6] | combination Emax [7] | combination Emax [8] | combination Emax (WM35 (Melanoma)) | combination Emax [9] | combination Emax [10] | combination Emax [11] | Bliss excess [12] |
| --- | --- | --- | --- | --- | --- | --- | --- | --- | --- | --- | --- | --- | --- | --- | --- | --- |
| CN(C)CCCOc1ccc(-c2ccc3ncc4c(c3c2)n(C2CCOCC2)c(=O)n4C)cn1 [AZD0156] + O=C(c1cc(Cc2n[nH]c(=O)c3ccccc23)ccc1F)N1CCN(C(=O)C2CC2)CC1 [Olaparib] (first compound max 3 µM, partner max 3 µM) | 0.283 | 0.135 | 0.362 | 0.0983 | 0.293 | 0.228 | 0.139 | 0.292 | 0.461 | 0.134 | 0.25 | 0.201 | 0.67 | 0.419 | 0.227 | -0.0048 |
| C=CCn1c(=O)c2cnc(Nc3ccc(N4CCN(C)CC4)cc3)nc2n1-c1cccc(C(C)(C)O)n1 [AZD1775] + C1CN(CCC1(C(=O)N[C@@H](CCO)C2=CC=C(C=C2)Cl)N)C3=NC=NC4=C3C=CN4 [Capivasertib] (first compound max 3 µM, partner max 3 µM) | 0.441 | 0.766 | 0.631 | 0.681 | 0.763 | 0.65 | 0.574 | 0.711 | 0.95 | 0.561 | 0.605 | 0.681 | 0.91 | 0.996 | 0.695 | -0.096 |
| COc1nnc2ccc(N3CCC(c4ccc(OCCN5CCN(C)C(=O)[C@H]5C)cc4)CC3)nn12 [AZD5153] + C=CCn1c(=O)c2cnc(Nc3ccc(N4CCN(C)CC4)cc3)nc2n1-c1cccc(C(C)(C)O)n1 [AZD1775] (first compound max 1 µM, partner max 1 µM) | 0.309 | 0.723 | 0.737 | 0.529 | 0.613 | 0.524 | 0.546 | 0.645 | 0.989 | 0.522 | 0.449 | 0.467 | 0.956 | 0.956 | 0.852 | -0.0147 |
| COc1nnc2ccc(N3CCC(c4ccc(OCCN5CCN(C)C(=O)[C@H]5C)cc4)CC3)nn12 [AZD5153] + CC1(C)CCC(CN2CCN(c3ccc(C(=O)NS(=O)(=O)c4ccc(NCC5CCOCC5)c([N+](=O)[O-])c4)c(Oc4cnc5[nH]ccc5c4)c3)CC2)=C(c2ccc(Cl)cc2)C1 [Venetoclax] (first compound max 1 µM, 7x7, partner max 1 µM) | 0.235 | 0.616 | 0.718 | 0.473 | 0.538 | 0.14 | 0.42 | 0.623 | 0.989 | 0.322 | 0.365 | 0.556 | 0.945 | 0.379 | 0.522 | -0.0057 |
| COc1nnc2ccc(N3CCC(c4ccc(OCCN5CCN(C)C(=O)[C@H]5C)cc4)CC3)nn12 [AZD5153] + CCN(CCO)CCCOc1ccc2c(Nc3cc(CC(=O)Nc4cccc(F)c4)[nH]n3)ncnc2c1 [AZD2811] (first compound max 1 µM, 7x7, partner max 1 µM) | 0.313 | 0.606 | 0.7 | 0.491 | 0.535 | 0.289 | 0.495 | 0.532 | 0.995 | 0.387 | 0.379 | 0.534 | 0.933 | 0.476 | 0.602 | 0.0072 |
| COc1nnc2ccc(N3CCC(c4ccc(OCCN5CCN(C)C(=O)[C@H]5C)cc4)CC3)nn12 [AZD5153] + C[C@@H]1COCCN1C2=NC(=NC(=C2)C3(CC3)[S@](=N)(=O)C)C4=C5C=CNC5=NC=C4 [AZD6738] (first compound max 1 µM, 7x7, partner max 10 µM) | 0.34 | 0.812 | 0.816 | 0.602 | 0.758 | 0.789 | 0.537 | 0.861 | 1 | 0.579 | 0.512 | 0.731 | 0.987 | 0.958 | 0.821 | 0.0002 |
| COc1nnc2ccc(N3CCC(c4ccc(OCCN5CCN(C)C(=O)[C@H]5C)cc4)CC3)nn12 [AZD5153] + Cc1c2c(nn1C)CSCc1cc(n(C)n1)CSc1cc(c3ccccc3c1)OCCCc1c(C(=O)O)n(C)c3c-2c(Cl)ccc13 [AZD5991] (first compound max 1 µM, 7x7, partner max 1 µM) | 0.29 | 0.814 | 0.84 | 0.463 | 0.491 | 0.242 | 0.471 | 0.526 | 1 | 0.378 | 0.35 | 0.798 | 1 | 0.644 | 0.632 | -0.0124 |
| COc1nnc2ccc(N3CCC(c4ccc(OCCN5CCN(C)C(=O)[C@H]5C)cc4)CC3)nn12 [AZD5153] + Cn1cnc2c(F)c(Nc3ccc(Br)cc3Cl)c(C(=O)NOCCO)cc21 [Selumetinib] (first compound max 1 µM, 7x7, partner max 10 µM) | 0.305 | 0.738 | 0.966 | 0.616 | 0.814 | 0.389 | 0.537 | 0.521 | 0.986 | 0.596 | 0.868 | 0.968 | 0.98 | 0.573 | 0.54 | 0.0634 |
| NC1(C(=O)N[C@@H](CCO)c2ccc(Cl)cc2)CCN(c2ncnc3[nH]ccc23)CC1 [Capivasertib] + CC(=O)c1c(C)c2cnc(Nc3ccc(N4CCNCC4)cn3)nc2n(C2CCCC2)c1=O [Palbociclib] (first compound max 10 µM, 7x7, partner max 10 µM) | 0.396 | 0.398 | 0.675 | 0.23 | 0.499 | 0.48 | 0.27 | 0.454 | 0.728 | 0.101 | 0.197 | 0.263 | 0.655 | 0.679 | 0.379 | 0.0187 |
| CC1(C)CCC(CN2CCN(c3ccc(C(=O)NS(=O)(=O)c4ccc(NCC5CCOCC5)c([N+](=O)[O-])c4)c(Oc4cnc5[nH]ccc5c4)c3)CC2)=C(c2ccc(Cl)cc2)C1 [Venetoclax] + CN(C)CCCOc1ccc(-c2ccc3ncc4c(c3c2)n(C2CCOCC2)c(=O)n4C)cn1 [AZD0156] (first compound max 1 µM, 7x7, partner max 1 µM) | 0.105 | 0.646 | 0.246 | 0.276 | 0.164 | 0.42 | 0.219 | 0.394 | 0.619 | 0.105 |  | 0.135 | 0.169 | 0.494 | 0.119 |  |
| CC1(C)CCC(CN2CCN(c3ccc(C(=O)NS(=O)(=O)c4ccc(NCC5CCOCC5)c([N+](=O)[O-])c4)c(Oc4cnc5[nH]ccc5c4)c3)CC2)=C(c2ccc(Cl)cc2)C1 [Venetoclax] + COc1cc(Nc2ncc3c(n2)-c2ccc(Cl)cc2C(c2c(F)cccc2OC)=NC3)ccc1C(=O)O [Alisertib] (first compound max 1 µM, 7x7, partner max 10 µM) | 0.137 | 0.647 | 0.672 | 0.226 | 0.227 | 0.574 | 0.286 | 0.902 | 0.964 | 0.299 |  | 0.152 | 0.633 | 0.446 | 0.394 |  |
| CC1(C)CCC(CN2CCN(c3ccc(C(=O)NS(=O)(=O)c4ccc(NCC5CCOCC5)c([N+](=O)[O-])c4)c(Oc4cnc5[nH]ccc5c4)c3)CC2)=C(c2ccc(Cl)cc2)C1 [Venetoclax] + C[C@@H]1COCCN1C2=NC(=NC(=C2)C3(CC3)[S@](=N)(=O)C)C4=C5C=CNC5=NC=C4 [AZD6738] (first compound max 1 µM, 7x7, partner max 10 µM) | 0.191 | 0.83 | 0.642 | 0.389 | 0.624 | 0.823 | 0.368 | 0.915 | 0.985 | 0.425 |  | 0.269 | 0.75 | 0.92 | 0.48 |  |
| CC1(C)CCC(CN2CCN(c3ccc(C(=O)NS(=O)(=O)c4ccc(NCC5CCOCC5)c([N+](=O)[O-])c4)c(Oc4cnc5[nH]ccc5c4)c3)CC2)=C(c2ccc(Cl)cc2)C1 [Venetoclax] + C[C@@H](Nc1cc(F)cc(F)c1)c1cc(C(=O)N(C)C)cc2c(=O)cc(N3CCOCC3)oc12 [AZD8186] (first compound max 1 µM, 7x7, partner max 3 µM) | 0.24 | 0.741 | 0.272 | 0.245 | 0.0835 | 0.336 | 0.168 | 0.403 | 0.808 | 0.164 |  | 0.0866 | 0.455 | 0.154 | 0.241 |  |
| CC1(C)CCC(CN2CCN(c3ccc(C(=O)NS(=O)(=O)c4ccc(NCC5CCOCC5)c([N+](=O)[O-])c4)c(Oc4cnc5[nH]ccc5c4)c3)CC2)=C(c2ccc(Cl)cc2)C1 [Venetoclax] + Cc1cc2ncnn2cc1Nc1ncc2c(n1)n(C1CCOCC1)c(=O)n2C [AZD7648] (first compound max 1 µM, 7x7, partner max 10 µM) | 0.123 | 0.693 | 0.221 | 0.283 | 0.0935 | 0.41 | 0.24 | 0.543 | 0.436 | 0.109 |  | 0.204 | 0.273 | 0.401 | 0.196 |  |
| CC1(C)CCC(CN2CCN(c3ccc(C(=O)NS(=O)(=O)c4ccc(NCC5CCOCC5)c([N+](=O)[O-])c4)c(Oc4cnc5[nH]ccc5c4)c3)CC2)=C(c2ccc(Cl)cc2)C1 [Venetoclax] + Cn1cnc2c(F)c(Nc3ccc(Br)cc3Cl)c(C(=O)NOCCO)cc21 [Selumetinib] (first compound max 1 µM, 7x7, partner max 3 µM) | 0.159 | 0.578 | 0.686 | 0.323 | 0.537 | 0.415 | 0.127 | 0.553 | 0.357 | 0.316 |  | 0.757 | 0.186 | 0.324 | 0.126 |  |
